Test [1] has as its target T1, calcium-sensing receptor (Homo sapiens, UniProt P41180, R990G).
T1 sequence (P41180 20-1078 R990G): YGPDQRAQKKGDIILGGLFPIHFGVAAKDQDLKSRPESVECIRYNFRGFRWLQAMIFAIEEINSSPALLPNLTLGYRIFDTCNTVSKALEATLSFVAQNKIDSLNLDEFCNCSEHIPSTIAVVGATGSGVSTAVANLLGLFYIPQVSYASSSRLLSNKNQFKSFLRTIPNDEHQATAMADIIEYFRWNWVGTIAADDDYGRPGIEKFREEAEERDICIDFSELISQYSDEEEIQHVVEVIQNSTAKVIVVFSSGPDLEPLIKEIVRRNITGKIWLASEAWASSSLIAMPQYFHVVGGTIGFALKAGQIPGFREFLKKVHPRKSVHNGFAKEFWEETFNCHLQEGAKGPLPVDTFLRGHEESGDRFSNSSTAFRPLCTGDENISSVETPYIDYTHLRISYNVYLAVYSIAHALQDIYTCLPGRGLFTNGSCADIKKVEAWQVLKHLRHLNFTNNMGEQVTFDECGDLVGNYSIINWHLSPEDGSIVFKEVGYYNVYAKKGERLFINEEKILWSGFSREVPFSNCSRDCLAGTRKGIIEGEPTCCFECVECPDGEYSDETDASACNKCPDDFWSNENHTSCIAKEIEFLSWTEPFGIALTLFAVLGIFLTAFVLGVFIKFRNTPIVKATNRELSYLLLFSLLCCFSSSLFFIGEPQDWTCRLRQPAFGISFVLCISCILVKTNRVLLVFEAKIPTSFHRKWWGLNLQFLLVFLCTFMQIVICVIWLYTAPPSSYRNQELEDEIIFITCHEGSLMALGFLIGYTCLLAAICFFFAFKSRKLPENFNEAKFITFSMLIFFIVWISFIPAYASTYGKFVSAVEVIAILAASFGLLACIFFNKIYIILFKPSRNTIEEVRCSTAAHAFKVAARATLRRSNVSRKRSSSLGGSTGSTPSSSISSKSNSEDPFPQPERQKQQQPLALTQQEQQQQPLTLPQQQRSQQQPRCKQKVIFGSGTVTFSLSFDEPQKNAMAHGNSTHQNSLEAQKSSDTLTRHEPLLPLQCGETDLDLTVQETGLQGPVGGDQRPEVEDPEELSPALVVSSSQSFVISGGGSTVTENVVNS
The test is described as follows: Fura-2 intracellular calcium mobilization, receptor-expressing vs nontransfected HEK293 cells. It is filed as cell-based. More on the design: gene CASR; recombinant human receptor stably expressed in HEK293 cells. (Calcium flux is commonly read through the fluorescence of an indicator in the cells.)

For test [2], the target named is T1, calcium-sensing receptor. The test is described as follows: Fura-2 intracellular calcium mobilization, receptor-expressing vs nontransfected HEK293 cells, blocked by NPS-2143. It is filed as cell-based. Further details: gene CASR; recombinant human receptor stably expressed in HEK293 cells.
The target of test [3] is T1, calcium-sensing receptor. Put plainly: Fura-2 intracellular calcium mobilization in receptor-expressing HEK293 cells; inhibition of Ca2+-mediated activation at neutral pH (IC50 […] at pH ~[…]). Format: cell-based. More on the design: gene CASR; recombinant human receptor stably expressed in HEK293 cells.
In test [4] the target is T1, calcium-sensing receptor. More on the design: gene CASR.

SMILES strings stand for the structures. Where only a bound is given, the exact number is not on record here.

On to `N[C@@H](CC(=O)O)C(=O)O` [L-aspartate], for which the “Fura-2 intracellular calcium mobilization, receptor-expressing vs nontransfected” value in test [1] was “Concentration-dependent receptor activation by L-glutamate (A) and L-aspartate (B)”. On to `N[C@@H](CCC(=O)O)C(=O)O` [L-glutamate], for which the “Fura-2 intracellular calcium mobilization, receptor-expressing vs nontransfected” value in test [2] is listed as ~ 5 mM. The term IC50 denotes the concentration that inhibits the measured activity by half. As for `CC(C)(Cc1ccc2ccccc2c1)NC[C@@H](O)COc1cccc(Cl)c1C#N` [NPS-2143, 2-chloro-6-[(2R)-2-hydroxy-3-[(2-methyl-1-naphthalen-2-ylpropan-2-yl)amino]propoxy]benzonitrile], the concentration for half-maximal inhibition (IC50) in test [3] is ~500 nM. On to `N[C@@H](CCC(=O)N[C@@H](CS)C(=O)NCC(=O)O)C(=O)O` [glutathione], for which the “Fura-2 intracellular calcium mobilization in receptor-expressing HEK293 cells” value in test [4] is listed as > 3 mM.

The values are drawn from PMC11249632, “Activation of the Calcium-Sensing Receptor by a Subfraction of Amino Acids Contained in Thyroid Drainage Fluid” (ACS Pharmacology & Translational Science, 2024).
